This test concerns Human dermal fibroblasts. As to the kind of experiment: Hyaluronic acid (HA) secretion by human dermal fibroblasts, Hyaluronan ELISA of culture media. It counts as cell-based. Conditions: for Synergy of active with red and/or near infrared light in hyaluronic acid production: combination of active and light versus light alone; for Fold Change versus treatment with light alone: net HA. On the procedure: Human dermal fibroblasts are maintained in flask in growth medium consisting of Dulbeccos' Modified Eagle Medium (DMEM) plus 10% fetal bovine serum, 50 units/ml penicillin and 50 μg/ml streptomycin. Cells are seeded at 10,000 cells per well in a 96 well plate in phenol-red-free Dulbeccos' Modified Eagle Medium (DMEM) plus 2% fetal bovine serum, 50 units/ml penicillin and 50 μg/ml streptomycin for 24 hours before the treatments. Glucosamine HCl or other actives were dissolved in 1×PBS at 10% stock and added into the medium at various concentrations for 48 hours. Culture media is collected at 48 hours post-treatment, and measured for HA (Hyaluronic acid) secretion using Hyaluronan ELISA kit (Echelon, cat. #K-1200) following the manufacturer protocol. To assess activity, the colorimetric chance is measured at 405 nm. The net HA secretion of each tested treatment is calculated by the amount of the HA secretion from each respective individual treatment minus the amount of the HA secretion from the untreated treatment. Then, the fold increase provided by the combination of the treatments by light+active is calculated as the fold change in net HA secreted from the application of the combined light plus active treatment divided by the net HA secreted from the treatment by light alone. […]
On the technique in general: ELISA stands for enzyme-linked immunosorbent assay.

Setting [1] is: 0.02% active alone in cell media, no light, 48 hours.
[2] abbreviates: Red (633 nm) + NIR (830 nm) light 0.3 J/cm^2 each + 0.02% active.
The mark [3] stands for this setting: Red + NIR light 0.3 J/cm^2 each + 0.02% active.
The mark [4] stands for this setting: Red + NIR light 0.3 J/cm^2 each + 0.2% active.
The mark [5] stands for this setting: Red + NIR light 3 J/cm^2 each + 0.02% active.
[6] abbreviates: Red + NIR light 3 J/cm^2 each + 0.2% active.

Structures are written as SMILES. Entries after “also recorded” stand apart in the source; their conditions may differ.

In the case of `Cl.N[C@H]1C(O)O[C@H](CO)[C@@H](O)[C@@H]1O` (some centres unmarked) [Glucosamine HCl, glucosamine hydrochloride], the HA concentrations is, setting by setting: under setting [1], 543 ng/mL; (0.2% active alone in cell media, no light, 48 hours) 999 ng/mL; under setting [2], 2489 ng/mL; (Red (633 nm) + NIR (830 nm) light 0.3 J/cm^2 each + 0.2% active) 2260 ng/mL; (Red (633 nm) + NIR (830 nm) light 3 J/cm^2 each + 0.02% active) 4379 ng/mL; (Red (633 nm) + NIR (830 nm) light 3 J/cm^2 each + 0.2% active) 3873 ng/mL. Moreover, the “Change in HA concentration over Untreated” value (shortened to “Change in HA concentration”) (0.02% active alone, no light) was -8 ng/mL; the “Change in HA concentration” value (0.2% active alone, no light) is reported as “+448 ng/ml”; the “Change in HA concentration” value under setting [3] is “+1938 ng/ml”; the “Change in HA concentration” value under setting [4] was “+1709 ng/ml”; the “Change in HA concentration” value under setting [5] is reported as “+3828 ng/ml”; the “Change in HA concentration” value under setting [6] is reported as “+3322 ng/ml”. Moreover, the “Synergy of active with red and/or near infrared light in hyaluronic acid production” value (from here on “Synergy of active”) (listed as glucosamine HCl, hydrochloride) is listed as “synergistically increased the hyaluronic acid secretion” and the “Synergy of active” value (listed as glucosamine hydrochloride, hydrochloride) was “synergistically increases hyaluronic acid production”. Moreover, the “Fold Change versus treatment with light alone” value (“Fold Change versus treatment” for short) reads like this: under setting [3], 2.25; under setting [4], 1.98; under setting [5], 2.99; under setting [6], 2.60.
On to `N[C@H]1C(O)O[C@H](CO)[C@@H](O)[C@@H]1O.O=P(O)(O)O` (some centres unmarked) [Glucosamine phosphate, reference compound], for which the HA concentrations under setting [1] is 689 ng/mL and the HA concentrations under setting [2] was determined as 1037 ng/mL. For the same compound, the “Change in HA concentration” value was -51 ng/mL (0.02% active alone, no light) and 297 ng/mL under setting [3]. In addition, the “Synergy of active” value (listed as glucosamine phosphate, phosphate) was “not observed” and the “Synergy of active” value (phosphate) was “No synergy was observed”. Also, under setting [3], the “Fold Change versus treatment” value came out at 0.36.
Take `CC(=O)N[C@H]1C(O)O[C@H](CO)[C@@H](O)[C@@H]1O` (some centres unmarked) [N-acetyl Glucosamine, N-acetyl glucosamine, reference compound]: the “Synergy of active” value is “No synergy was observed; also recorded: not observed”. The HA concentrations under setting [1] worked out at 735 ng/mL. For the same compound, the “Change in HA concentration” value (0.02% active alone, no light) is -125 ng/mL. The HA concentrations under setting [2] is 1878 ng/mL. For the same compound, under setting [3], the “Change in HA concentration” value came to 1018 ng/mL and the “Fold Change versus treatment” value is 1.1.
`N[C@H]1C(O)O[C@H](CO)[C@@H](O)[C@@H]1O` (some centres unmarked) [glucosamine]: the “Synergy of active” value was “not observed”.

The values are drawn from US11241374B2, “Compositions and methods for treating skin conditions using light and glucosamine hydrochloride” (Johnson & Johnson Consumer Inc., priority 2018, dated 2022).
